Assay results from PubChem BioAssay (NCI).
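Where inhibition never reached the appropriate level, the endpoint shown equals the highest concentration tested. Otherwise, values were interpolated linearly from a five-concentration, 48-hour dose response in 96-well plates. At the GI50, growth is halved. TGI marks complete inhibition of growth.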

Assays:
Assay in all cases: NCI tumour cell line growth inhibition, 48 h
[1] = system: NCI-H226 lung
[2] = system: MCF7 breast
[3] = system: SF-295 CNS
[4] = system: EKVX NSCLC
[5] = system: K-562 leukemia
[6] = system: SW-620 colon
[7] = system: NCI-H522 lung
[8] = system: OVCAR-5 ovarian
[9] = system: SR leukemia
[10] = system: SK-MEL-28 melanoma
[11] = system: MOLT-4 leukemia
[12] = system: KM12 colon
[13] = system: OVCAR-4 ovarian
[14] = system: SNB-75 CNS
[15] = system: 786-0 renal
[16] = system: OVCAR-8 ovarian
[17] = system: RPMI-8226 leukemia
[18] = system: HL-60(TB) leukemia
[19] = system: TK-10 renal
[20] = system: UACC-257 melanoma
[21] = system: T-47D breast
[22] = system: MDA-MB-435
[23] = system: PC-3 prostate
[24] = system: SF-268 CNS
[25] = system: UO-31 renal
[26] = system: DU-145 prostate
[27] = system: SNB-19 CNS
[28] = system: HS 578T breast
[29] = system: CAKI-1 renal
[30] = system: M14 melanoma
[31] = system: SK-MEL-2 melanoma
[32] = system: MALME-3M melanoma
[33] = system: A498 renal
[34] = system: MDA-MB-231 breast
[35] = system: LOX IMVI melanoma
[36] = system: SF-539 CNS
[37] = system: HT29 colon
[38] = system: COLO 205 colon
[39] = system: A549 NSCLC
[40] = system: RXF 393 renal
[41] = system: HCT-15 colon
[42] = system: UACC-62 melanoma
[43] = system: SK-MEL-5 melanoma
[44] = system: BT-549 breast
[45] = system: SK-OV-3 ovarian
[46] = system: ACHN renal
[47] = system: HOP-62 NSCLC
[48] = system: CCRF-CEM leukemia
[49] = system: NCI-H460 lung
[50] = system: HOP-92 NSCLC
[51] = system: IGROV1 ovarian
[52] = system: HCC-2998 colon
[53] = system: U251 CNS
[54] = system: HCT-116 colon

`Cc1ccc(N2CCN(C3=C(Cl)C(=O)c4ncccc4C3=O)CC2)cc1` was tested, and the GI50 [1] was 10.1 µM, the TGI [1] was 26.5 µM and the GI50 [2] was 1.22 µM. The TGI [2] was 3.23 µM, the GI50 [3] was 2.12 µM and the TGI [3] was 4.86 µM. It also gave a GI50 [4] of 1.73 µM, a TGI [4] of 3.14 µM and a GI50 [5] of 1.35 µM. For the same molecule, the TGI [5] was 8.53 µM, the GI50 [6] was 1.47 µM and the TGI [6] was 3.08 µM. The GI50 [7] was 1.76 µM, the TGI [7] was 3.53 µM and the GI50 [8] was 3.36 µM. The TGI [8] was 11.4 µM, the GI50 [9] was 0.504 µM and the TGI [9] was 4.8 µM. The GI50 [10] was 2.35 µM, the TGI [10] was 5.25 µM and the GI50 [11] was 2.09 µM. For the same molecule, the TGI [11] was 5.59 µM, the GI50 [12] was 17.5 µM and the TGI [12] was 32 µM. It also gave a GI50 [13] of 1.68 µM, a TGI [13] of 3.29 µM and a GI50 [14] of 12.8 µM. It also gave a TGI [14] of 33.3 µM, a GI50 [15] of 3.35 µM and a TGI [15] of 10.2 µM. For the same molecule, the GI50 [16] was 1.6 µM, the TGI [16] was 2.99 µM and the GI50 [17] was 2.14 µM. The TGI [17] was 5.79 µM, the GI50 [18] was 1.35 µM and the TGI [18] was 3.87 µM. The GI50 [19] was 7.15 µM, the TGI [19] was 18.1 µM and the GI50 [20] was 1.75 µM. The TGI [20] was 3.3 µM, the GI50 [21] was 1.61 µM and the TGI [21] was 4.04 µM. The GI50 [22] was 1.91 µM, the TGI [22] was 3.51 µM and the GI50 [23] was 2.85 µM. For the same molecule, the TGI [23] was 11.9 µM, the GI50 [24] was 5.91 µM and the TGI [24] was 22.2 µM. It also gave a GI50 [25] of 1.53 µM, a TGI [25] of 3.11 µM and a GI50 [26] of 6.05 µM. It also gave a TGI [26] of 18.3 µM, a GI50 [27] of 13.4 µM and a TGI [27] of 26.4 µM. For the same molecule, the GI50 [28] was 3.64 µM, the TGI [28] was 34.5 µM and the GI50 [29] was 1.68 µM. For the same molecule, the TGI [29] was 3.09 µM, the GI50 [30] was 1.84 µM and the TGI [30] was 3.69 µM. It also gave a GI50 [31] of 2.11 µM, a TGI [31] of 4.48 µM and a GI50 [32] of 1.77 µM. It also gave a TGI [32] of 3.34 µM, a GI50 [33] of 15 µM and a TGI [33] of 28.4 µM. The GI50 [34] was 1.59 µM, the TGI [34] was 3.09 µM and the GI50 [35] was 1.52 µM. The TGI [35] was 2.91 µM, the GI50 [36] was 1.85 µM and the TGI [36] was 3.5 µM. The GI50 [37] was 5.05 µM, the TGI [37] was 19.3 µM and the GI50 [38] was 1.84 µM. For the same molecule, the TGI [38] was 3.33 µM, the GI50 [39] was 15 µM and the TGI [39] was 33.3 µM. The GI50 [40] was 1.79 µM, the TGI [40] was 3.23 µM and the GI50 [41] was 1.54 µM. The TGI [41] was 3.28 µM, the GI50 [42] was 1.84 µM and the TGI [42] was 3.6 µM. The GI50 [43] was 1.86 µM, the TGI [43] was 3.77 µM and the GI50 [44] was 5.51 µM. For the same molecule, the TGI [44] was 17.3 µM, the GI50 [45] was 12.8 µM and the TGI [45] was 25.8 µM. The GI50 [46] was 1.61 µM, the TGI [46] was 2.96 µM and the GI50 [47] was 15.4 µM. The TGI [47] was 29.4 µM, the GI50 [48] was 2.21 µM and the TGI [48] was 7.09 µM. The GI50 [49] was 4.49 µM, the TGI [49] was 22.6 µM and the GI50 [50] was 1.63 µM. The TGI [50] was 3.17 µM, the GI50 [51] was 1.74 µM and the TGI [51] was 3.21 µM. It also gave a GI50 [52] of 1.77 µM, a TGI [52] of 3.38 µM and a GI50 [53] of 1.79 µM. The TGI [53] was 3.42 µM, the GI50 [54] was 1.62 µM and the TGI [54] was 2.97 µM.
